Data set [1] concerns α-smooth muscle actin (α-SMA) expression in hepatic stellate cells. Briefly: Stellate cell activation: α-SMA expression by Western blot of freshly isolated stellate cells, CCl4-treated rats. The class given is in vivo, Sprague-Dawley rats. The following applies: 200 mg/kg i.p., 48 h, metabolite 5 given as ester prodrug. On the technique in general: In western blotting, separated proteins are transferred to a membrane and probed.
Description: (§2) At least four Sprague-Dawley (Charles River Breeding Labs) male rats (50 to 60 g) were assigned to each of four testing groups (designated as “CCl4”, “pentoxifylline”, “metabolite 5”, and “control”). Each rat received a single intraperitoneal injection of CCl4 in mineral oil (1:3; v/v) at a dose of 2 mL/kg body weight (CCl4, pentoxifylline, and metabolite 5 groups), or mineral oil only (control group). In addition, animals received intraperitoneal injections (100 μL) of saline (control and CCl4 groups), 200 mg/kg pentoxifylline (pentoxifylline group), or 200 mg/kg of the ester prodrug of pentoxifylline metabolite 5 (metabolite 5 group) at the following times with respect to mineral oil or CCl4 administration: −4 h, +8 h, +20 h, +32 h, and +44 h.
Hepatic stellate cells were prepared from rats by in situ perfusion of the liver and single-step density Nycodenz® gradient (Accurate Chemical & Scientific Corp.). […] The cells were mixed with 9.5 mL Hank's buffer containing 3 g/L BSA and 8 mL of 28.7% (w/v) Nycodenz® in sodium-free Hank's buffer. The gradient was generated by placing 6 mL of the Hank's/BSA solution on top of the liver cell mixture in a 50 mL centrifugation tube. […]

Data set [2] deals with malondialdehyde-protein adducts. Briefly: Hepatic lipid peroxidation (malondialdehyde-protein adducts, immunohistochemistry) in CCl4-treated rats. The following applies: 48 h. The class given is in vivo, Sprague-Dawley rats. On the procedure:
(§1) Forty-eight hours after the CCl4 or mineral oil injection (and 4 hours after the [^3H]thymidine injection), the rats were sacrificed. Thereafter, liver tissues were promptly removed, and a piece was fixed in 10% formaldehyde and embedded in paraffin for immunohistochemical staining.
Liver tissue was immunostained with antisera, specific for malondialdehyde-lysine adducts, raised against malondialdehyde-lysine adducts as described by Houglum et al., J Clin Invest 96:2269-76 (1995). Briefly, guinea pig LDL was isolated and modified with MDA, and the homologous modified LDL was used to immunize guinea pigs.
A phase-contrast microscope was utilized for hematoxylin/eosin staining and immunohistochemistry with alkaline phosphatase secondary antibodies (Vector Laboratories). Cytochromes utilized were alkaline phosphatase with fast green as counterstain (Sigma Chemical Co.). Negative control samples were processed in parallel under the same conditions, but with omission of the primary antibody.
In order to ascertain whether or not the prevention of activation observed with pentoxifylline resulted from interfering with the hepatocellular injury induced by CCl4, the degree of hepatocellular injury and lipid peroxidation were determined in those animals. […] As set forth above, protein adducts with malondialdehyde were detected using specific antibodies against malondialdehyde-lysine epitopes.

A further data set relates to NFkB. Briefly: Mobility shift analysis of stellate cell nuclear extracts with NFkB oligonucleotide. Format: in vivo, Sprague-Dawley rats. To be noted: CCl4-treated rats, gel shift. On the technique in general: Mobility shift assays separate free from complexed probe on a gel.
A further data set concerns α-SMA-E box. Nature of the data set: Mobility shift analysis of stellate cell nuclear extracts with α-SMA-E box oligonucleotide. Format: in vivo, Sprague-Dawley rats. The following applies: CCl4-treated rats, gel shift.
For a further data set, the system named is 3T3 NIH fibroblasts. Briefly: Fibroblast proliferation in culture. The following applies: for effect on fibroblast growth induced by cytokines PDGF, EGF and FGF: data not shown. Format: cell-based. On the procedure:
The biological activities of pentoxifylline and metabolite 5 were further studied by measuring their effects on the stimulation of fibroblast proliferation. For this study, 3T3 NIH fibroblasts were cultured in the presence or absence of pentoxifylline or metabolite 5.

Data set [3] concerns cAMP phosphodiesterase activity in hepatic stellate cells. Nature of the data set: CREB phosphorylation at Ser 133 in stellate cell nuclear extracts (Western blot) as measure of cAMP phosphodiesterase inhibition in vivo. Also on record: species or system Sprague-Dawley rats. The following applies: for expression of CREB-PSer133 in stellate cell nuclear extracts: CCl4-treated rats, Western blot. On the procedure: Stellate cells were identified by their typical autofluorescence at 328 nm excitation wavelength, staining of lipid droplets by oil red, and immunohistochemistry with a monoclonal antibody against desmin. [Bedossa et al., Hepatology 19(5):1262-71 (1994)]. Detection of α-SMA, malondialdehyde-protein adducts, and CREB-PSer 133 in stellate cells extracts was performed by Western blot [Buck et al., EMBO J. 13:851-60 (1994)], and using antibodies directed against α-SMA (Vector Laboratories), malondialdehyde-lysine epitopes as described below [Trautwein et al., J. Clin. Invest. 93:2554-61 (1990)], or CREB-PSer 133 (Upstate Biotechnology).
Next, pentoxifylline and metabolite 5 were evaluated to determine whether they inhibit cAMP phosphodiesterase activity in hepatic stellate cells in vivo leading to an increase in protein kinase A-mediate phosphorylation. Because this signal transduction pathway triggers site-specific phosphorylation of the nuclear transcription factor CREB (cAMP responsive element binding protein) on Serine 133 [Yamamoto et al., Nature 334:494-98 (1988)], the induction of CREB phosphorylation at Ser 133 was analyzed in nuclear extracts from freshly isolated stellate cells using an antibody against the activated, phosphorylated form of CREB [Ginty et al., Science 260:238-42 (1993)].
FIG. 4B is a Western blot indicating the results of phosphorylation of CREB at Serine 133 in stellate cell nuclear extracts with control (lane 1), CCl4 (lane 2), CCl4/pentoxifylline (lane 3), and CCl4/metabolite 5 (lane 4) animals. […] Molecular markers (kilodaltons) are shown on the right margin of FIG. 4B. In addition to recognizing CREB, anti-CREB-PSer133 detected two other proteins. These are most likely members of the CREB-ATF family, ATF-1 and CREM, that have phosphoacceptor sequences similar to that of CREB-PSer133 [Ginty et al., Science 260:238-42 (1993)]. […] Neither CREB PSer133 nor phosphorylated members of the CREB-ATF family were detected in stellate cell nuclear extracts from CCl4-treated animals (lane 2).

The conditions of data set [4]: after pentoxifylline; cited from earlier work.
A further data set has as its system hepatic stellate cells. Nature of the data set: Stellate cell proliferation ([3H]thymidine incorporation into stellate cell DNA) in CCl4-treated rats. Format: in vivo, Sprague-Dawley rats. The following applies: 200 mg/kg i.p. at -4, +8, +20, +32, +44 h, 48 h, metabolite 5 given as ester prodrug. On the procedure: as §1
Hepatic stellate cells were prepared from rats by in situ perfusion of the liver and single-step density Nycodenz® gradient (Accurate Chemical & Scientific Corp.). [See Bedossa et al., Hepatology 19(5):1262-71 (1994); Brenner et al., Mol. Biol. Med. 7:105-15 (1990); Schäfer et al., Hepatology 7(4):680-87 (1987)]. The cells were mixed with 9.5 mL Hank's buffer containing 3 g/L BSA and 8 mL of 28.7% (w/v) Nycodenz® in sodium-free Hank's buffer. […]
Nuclei were prepared by a modification of the procedure described previously, e.g., by Buck et al., EMBO J. 13:851-60 (1994). […] DNA was isolated, extracted and counted for [^3H]thymidine incorporation.
Stellate cell proliferation was assessed by the incorporation of [^3H]thymidine. Stellate cell activation was evaluated by the expression of α-smooth muscle actin (α-SMA). […]
The specific activity of stellate cell DNA, an index of S-phase labeling, was determined from at least four rats in each experimental group after 4 hours of labeling with [^3H]thymidine at 1 PM. […]

For data set [5] the following is noted: rat, in vivo.
Description: At least four Sprague-Dawley (Charles River Breeding Labs) male rats (50 to 60 g) were assigned to each of four testing groups (designated as “CCl4”, “pentoxifylline”, “metabolite 5”, and “control”). Each rat received a single intraperitoneal injection of CCl4 in mineral oil (1:3; v/v) at a dose of 2 mL/kg body weight (CCl4, pentoxifylline, and metabolite 5 groups), or mineral oil only (control group). In addition, animals received intraperitoneal injections (100 μL) of saline (control and CCl4 groups), 200 mg/kg pentoxifylline (pentoxifylline group), or 200 mg/kg of the ester prodrug of pentoxifylline metabolite 5 (metabolite 5 group) at the following times with respect to mineral oil or CCl4 administration: −4 h, +8 h, +20 h, +32 h, and +44 h. The last injection (at +44h) included 30 μCi of 6-[^3H]thymidine (DuPont).
Data set [6] concerns cyclic nucleotide phosphodiesterases. To be noted: cited from earlier work.
The test system of another data set is dermal fibroblasts. To be noted: cited from earlier work.
For data set [7] the following is noted: phosphorus-induced hepatocellular necrosis; cited from earlier work.

SMILES strings stand for the structures.

Description for NFkB: Gel retardation analysis of protein-DNA complexes were performed with an oligonucleotide of the putative DNA binding site.
For these analyses, equal amounts of nuclear protein were incubated with 1 ng of ^32P-labeled-NFkB (FIG. 3A) or ^32P-labeled-α-SMA-E box (FIG. 3B) oligonucleotides. The DNA-protein complexes were resolved by electrophoresis on a 6% nondenaturing polyacrylamide gel, the position of the bound DNA being indicated by arrows in FIGS. 3A-B. As described further below, some samples were incubated with specific antibodies or unlabeled oligonucleotide.
More specifically, FIG. 3A depicts DNA-protein complexes resolved by gel electrophoresis for representative samples of control (lane 2), CCl4 (lane 3), CCl4/pentoxifylline (lane 4); CCl4/metabolite 5 (lane 5); and CCl4+NFkB oligonucleotide (lane 6). On lane 1, the ^32P-labeled-NFkB probe was processed without nuclear extracts. […] The complex of ^32P-labeled NFkB oligonucleotides and nuclear extracts from activated stellate cells was competed by a NFkB cognate oligonucleotide (lane 6).
Description for α-SMA-E box: as §2
Briefly, cells were homogenized in 1 mL of 5% citric acid, 0.5% NP-40, 10 mM sodium fluoride and 10 mM sodium pyrophosphate with a glass Dounce homogenizer with a loose fitting pestle. The homogenized cells were placed above a cushion consisting of 30% sucrose and 1% citric acid. The nuclei were precipitated by a 4,000 g centrifugation at 4° C. for 30 min. and frozen at −70° C.
Gel retardation analysis of protein-DNA complexes were performed with an oligonucleotide of the putative DNA binding site. […]

For `Cn1cnc2c1c(=O)n(CCCC(=O)O)c(=O)n2C` [metabolite 5, 1-(3-carboxypropyl)-3,7-dimethylxanthine], the “effect on stellate cell activation (α-SMA expression, Western blot)” value in data set [1] is on record as “prevented the activation of stellate cells induced by CCl4”. Further, in [2], the “hepatic lipid peroxidation (malondialdehyde-protein adducts) versus CCl4 alone” value is reported as “did not affect”. Besides, in the data set with NFkB, the “effect on NFkB nuclear binding activity of stellate cells” value is given as “prevented NFkB nuclear activity induced by CCl4”. Also, in the data set on α-SMA-E box, the “effect on complex between α-SMA-E box and stellate cell nuclear extracts” value was “prevented the formation of a complex”. Further, in the data set on 3T3 NIH fibroblasts, the “effect on fibroblast growth in logarithmic phase” value is reported as “block fibroblast growth in logarithmic phase”; the “effect on fibroblast growth induced by cytokines PDGF, EGF and FGF” value is reported as “blocked fibroblast growth”. In addition, the “expression of CREB-PSer133 in stellate cell nuclear extracts” value in data set [3] is “not detected”. In addition, the phosphodiesterase inhibitory activity entry in data set [3] (rat, in vivo) is listed as “lacks phosphodiesterase inhibitory activity”. In [4], the “plasma concentration relative to pentoxifylline” value was “five times greater”.

`CC(=O)CCCCn1c(=O)c2c(ncn2C)n(C)c1=O` [pentoxifylline, 1-(5-oxohexyl)-3,7-dimethylxanthine]: the “effect on stellate cell proliferation (stellate cell DNA [3H]thymidine specific activity)” value in the data set on hepatic stellate cells was “abolished the proliferation of stellate cells”. Also, the “effect on stellate cell activation (α-SMA expression, Western blot)” value in data set [1] is on record as “prevented the activation of stellate cells induced by CCl4”. Moreover, the “hepatic lipid peroxidation (malondialdehyde-protein adducts) versus CCl4 alone” value in data set [2] is recorded as “comparable”. Further, the “effect on NFkB nuclear binding activity of stellate cells” value in the data set on NFkB is reported as “prevented NFkB nuclear activity induced by CCl4”. Besides, the “effect on complex between α-SMA-E box and stellate cell nuclear extracts” value with α-SMA-E box is recorded as “prevented the formation of a complex”. Moreover, in the data set with 3T3 NIH fibroblasts, the “effect on fibroblast growth in logarithmic phase” value was “block fibroblast growth in logarithmic phase”; the “effect on fibroblast growth induced by cytokines PDGF, EGF and FGF” value is reported as “blocked fibroblast growth”. Further, in data set [3], the “expression of CREB-PSer133 in stellate cell nuclear extracts” value was “markedly increased”. Also, the “toxicity of the dose to the animals” value in data set [5] is “not toxic”. Also, the phosphodiesterase inhibition result in data set [6] is “non-specific inhibitor of cyclic nucleotide phosphodiesterases”. The collagen gene expression entry in the data set with dermal fibroblasts is “inhibits collagen gene expression”. Further, the hepatic fibrosis entry in [7] is reported as “prevented hepatic fibrosis”.

Values taken from US6420428B1, “Treatment and prevention of hepatic disorders” (The Regents of the University of California, priority 1996, dated 2002).
